From BindingDB's records for doi:10.1021/jm00032a001 (Warner-Lambert, 1994)

Columns and labels:
[1] = Tested for inhibition of ICAM expression by ELISA at the dose of 30 uM
[2] = Tested for inhibition of E-selectin expression by ELISA at the dose of 30 uM
[3] = Tested for inhibition of ICAM expression by ELISA at the dose of 30 uM; remark: listed apart in the source
[4] = Tested for inhibition of E-selection expression by ELISA at the dose of 30 uM

Compound	IC50 [1] [µM]	IC50 [2] [nM]	IC50 [3] [µM]	IC50 [4] [µM]
CNC(=O)c1sc2ccc(OC)cc2c1OC(C)C [3-Isopropoxy-5-methoxy-benzo[b]thiophene-2-carboxylic acid methylamide]	6.6	1400		
COc1ccc2c(c1)c(OC(C)C)c(C(N)=O)[s+]2[O-] (stereo unspecified) [3-Isopropoxy-5-methoxy-1-oxo-benzo[b]thiophene-2-carboxylic acid amide]			4	6.6
CC(C)Oc1c(C(N)=O)sc2ccc(O)cc12 [5-Hydroxy-3-isopropoxy-benzo[b]thiophene-2-carboxylic acid amide]	3.5	3300		
